# Values quoted from earlier work as cited in paper PMC8549773 (Chemical Science, 2021).
# Test system: GCase
# Settings: administered to rats
structure (smiles),measurement,value
"OC[C@H]1O[C@@H](F)[C@H](F)[C@@H](O)[C@@H]1O [2FGlcF, 2-deoxy-2-fluoro-β-D-glucosyl fluoride]",GCase inactivation in organs,"inactivates GCase in all organs, including the brain"
